From paper PMC7181131, “N-Pyrazinoyl Substituted Amino Acids as Potential Antimycobacterial Agents—the Synthesis and Biological Evaluation of Enantiomers” (Molecules, 2020)
In brackets after ≈: the same amount, converted by molar mass. Where two headings read alike, the source gives them in different places.

Experiments:
[1] = tested on: Klebsiella pneumoniae CCM 4415 (ATCC 10031); test: Antibacterial microdilution broth method, KP; settings: read after 24 h of incubation
[2] = tested on: M. smegmatis DSM 43465 (ATCC 607); test: Microplate Alamar Blue Assay (MABA) microdilution, M. smegmatis; format: cell-based, Mycobacterium smegmatis
[3] = tested on: Lichtheimia corymbifera CCM 8077; test: Antifungal microdilution broth method, LC; format: cell-based; settings: CCM8077, 48 h, read-out: MIC LC
[4] = tested on: Aspergillus fumigatus ATCC 204305; test: Antifungal microdilution broth method, AF; format: cell-based; settings: ATCC204305, 48 h, read-out: MIC AF
[5] = tested on: Trichophyton interdigitale CCM 8377 (ATCC 9533); test: Antifungal microdilution broth method, TI; format: cell-based; settings: 48 h, read-out: MIC TI
[6] = tested on: M. avium ssp. avium CNCTC My 80/72 (ATCC 15769); test: Antimycobacterial pre-screening, microdilution broth, M. avium; format: cell-based; settings: Mycobacterium avium, ATCC15769; Middlebrook 7H9 broth of declared pH 6.6
[7] = tested on: Candida parapsilosis CCM 8260 (ATCC 22019); test: Antifungal microdilution broth method, CP; format: cell-based; settings: Lodderomyces parapsilosis, 24 h, read-out: MIC CP
[8] = tested on: Aspergillus flavus CCM 8363; test: Antifungal microdilution broth method, AFla; format: cell-based; settings: CCM8363, read after 48 h (filamentous fungi), read-out: MIC AFla
Method: 6. In vitro antifungal activity screening
Antifungal activity evaluation was performed using a microdilution broth method according to EUCAST instructions (The European Committee on Antimicrobial Susceptibility Testing) with slight modifications. Eight fungal strains (four yeast and four mould strains) were used for antifungal […]
and Trichophyton interdigitale CCM 8377 (ATCC 9533). Tested strains were purchased from the Czech Collection of Microorganisms (CCM, Brno, Czech Republic) or from the American Type Collection Cultures (ATCC, Manassas, VA, USA). Tested compounds were dissolved in DMSO and diluted in a twofold manner with RPMI 1640 medium, with glutamine and 2% glucose, buffered to pH 7.0 with MOPS (3-morpholinopropane-1-sulfonic acid). The final concentration of DMSO in the testing […]
Static incubation was performed in the dark and in humid atmosphere, at 35±2 °C, for 24 and 48 h (72 and 120 h for Trichophyton interdigitale respectively). Positive controls consisted of test microbe solely, while negative controls consisted of cultivation medium and DMSO. Visual inspection and metabolic activity indicator, Alamar Blue (ThermoFisher Scientific), were used for MIC endpoint evaluation. The internal quality standards, amphotericin B (Sigma-Aldrich) and voriconazole (Toronto research Chemicals, CA) were involved in assays (for MIC of standards see Table S5). All experiments were conducted in duplicates.
For the results to be valid, the difference in MIC for one compound determined from two parallel measurements must not be greater than one step on the dilution scale.

[9] = tested on: Candida krusei CCM 8271 (ATCC 6258); test: Antifungal microdilution broth method, CK; format: cell-based; settings: Pichia kudriavzevii, 24 h, read-out: MIC CK
[10] = tested on: Mycobacterium tuberculosis H37Rv CNCTC My 331/88 (ATCC 27294); test: Antimycobacterial pre-screening, microdilution broth, Mtb H37Rv; format: cell-based; settings: Middlebrook 7H9 broth of declared pH 6.6
[11] = tested on: Candida tropicalis CCM 8264 (ATCC 750); test: Antifungal microdilution broth method, CT; format: cell-based; settings: 24 h, read-out: MIC CT
[12] = tested on: M. kansasii CNCTC My 235/80 (ATCC 12478); test: Antimycobacterial pre-screening, microdilution broth, M. kansasii; format: cell-based; settings: Mycobacterium kansasii, ATCC12478; Middlebrook 7H9 broth of declared pH 6.6
[13] = tested on: Mtb H37Ra ITM-M006710 (ATCC 9431); test: Microplate Alamar Blue Assay (MABA) microdilution, Mtb H37Ra; format: cell-based, Mycobacterium tuberculosis; settings: Mycobacterium tuberculosis
[14] = tested on: Candida albicans CCM 8320 (ATCC 24433); test: Antifungal microdilution broth method, CA; format: cell-based; settings: 24 h, read-out: MIC CA
[15] = tested on: Mycobacterium aurum DSM 43999 (ATCC 23366); test: Microplate Alamar Blue Assay (MABA) microdilution, M. aurum; format: cell-based
[16] = tested on: Staphylococcus epidermidis CCM 4418 (ATCC 12228); test: Antibacterial microdilution broth method, SE; format: cell-based; settings: 24 h, read-out: MIC SE
HepG2 cell line = test: HepG2 cytotoxicity, CellTiter 96 (MTS) assay; format: cell-based, human; settings: Homo sapiens, read-out: HepG2 IC50
[17] = Mycolicibacterium smegmatis, pH 6, read-out: MIC M. smegmatis µg/mL
[18] = Mycolicibacterium smegmatis, pH 6.6, read-out: MIC M. smegmatis
[19] = pH 6.6, read-out: MIC Mtb H37Ra
[20] = pH 6, calculated from µg/mL, read-out: MIC Mtb H37Ra
[21] = Mycolicibacterium aurum, pH 6, read-out: MIC M. aurum µg/mL
[22] = Mycolicibacterium aurum, pH 6.6, read-out: MIC M. aurum
[23] = HepG2, 24 h incubation, CellTiter 96
[24] = pH 6, Table 4, read-out: Mtb pH 6 MIC

Row | SMILES | MIC KP [1] [µM] | MIC [2, 17] [µg/mL] | MIC [2, 18] [µg/mL] | MIC [3] [µM] | MIC [4] [µM] | MIC [5] [µM] | MIC [7] [µM] | MIC [8] [µM] | MIC [9] [µM] | MIC [11] [µM] | MIC ([13]; pH 6) [µg/mL] | MIC ([13]; pH 6, read-out: MIC Mtb H37Ra) [µg/mL] | MIC [13, 19] [µg/mL] | MIC [13, 20] [µM] | MIC [14] [µM] | MIC [15, 21] [µg/mL] | MIC [15, 22] [µg/mL] | MIC [16] [µM] | IC50 (HepG2 cell line; HepG2, 24 h) [µM] | MIC ([13]; pH 6, read-out: Mtb pH 6 MIC) [µM] | further results
1 | CCOC(=O)[C@H](Cc1ccccc1)NC(=O)c1cnccn1 (racemic) [PC-DL-Phe-Et, ethyl (pyrazine-2-carbonyl)phenylalaninate] | > 500 | ≥ 125 | 250 (≈ 835 µM) | > 500 | > 500 | > 500 | > 500 | > 500 | > 500 | > 500 | 31.2 | 31.2 | 250 | 104 | > 500 | 62.5 (≈ 209 µM) | ≥ 500 | 500 (≈ 150 µg/mL) | – | – | MIC [6]: > 100 µg/mL; MIC [10]: > 100 µg/mL; MIC [12]: > 100 µg/mL
2 | NNC(=O)c1ccncc1 [INH, isoniazid, reference compound] | – | – | – | – | – | – | – | – | – | – | – | 0.125 to 0.25 | 0.125 to 0.25 | 0.91 to 1.82 | – | – | – | – | – | – | MIC ([2]; Mycolicibacterium smegmatis, pH 6; read-out: MIC M. smegmatis): 7.81 to 15.6 µg/mL (≈ 56.9 to 114 µM); MIC ([2]; Mycolicibacterium smegmatis, pH 6.6; read-out: MIC M. smegmatis): 7.81 to 15.6 µg/mL (≈ 56.9 to 114 µM); MIC [6]: 25 µg/mL (≈ 182 µM); MIC [10]: 0.39 µg/mL (≈ 2.84 µM); MIC [12]: 25 µg/mL (≈ 182 µM); MIC ([15]; Mycolicibacterium aurum, pH 6; read-out: MIC M. aurum): 3.91 to 7.81 µg/mL (≈ 28.5 to 56.9 µM); MIC ([15]; Mycolicibacterium aurum, pH 6.6; read-out: MIC M. aurum): 1.95 to 3.91 µg/mL (≈ 14.2 to 28.5 µM)
3 | COC(=O)C(NC(=O)c1cnccn1)c1ccccc1 [PC-D/L-Pgl-Me, methyl 2-phenyL-2-(pyrazine-2-carboxamido)acetate] | > 500 | ≥ 250 | ≥ 500 | > 500 | > 500 | > 500 | > 500 | > 500 | > 500 | 500 (≈ 136 µg/mL) | < 1.95 | < 1.95 | ≥ 500 | < 7.3 | > 500 | 31.2 (≈ 115 µM) | ≥ 500 | > 500 | > 1000 | < 7 | –
4 | C[C@H](NC(=O)c1cnccn1)C(=O)O [PC-L-Ala, (pyrazine-2-carbonyl)-L-alanine] | > 500 | 125 (≈ 640 µM) | ≥ 250 | > 500 | > 500 | > 500 | > 500 | > 500 | > 500 | > 500 | ≥ 250 | ≥ 250 | ≥ 250 | ≥ 1280 | > 500 | 62.5 (≈ 320 µM) | ≥ 250 | > 500 | – | – | IC50 (HepG2 cell line; [23]): > 250 µM; MIC [13, 24]: ≥ 1280 µM
5 | COC(=O)[C@H](CCSC)NC(=O)c1cnccn1 [PC-L-Met-Me, methyl (pyrazine-2-carbonyl)-L-methioninate] | > 500 | ≥ 500 | ≥ 500 | > 500 | > 500 | 500 (≈ 135 µg/mL) | > 500 | > 500 | > 500 | > 500 | < 3.91 | < 3.91 | ≥ 500 | < 14.5 | > 500 | 62.5 (≈ 232 µM) | ≥ 500 | > 500 | > 100 | 15 | –
6 | COC(=O)[C@H](COCc1ccccc1)NC(=O)c1cnccn1 [PC-L-OBn-Ser-Me, methyl O-benzyl-N-(pyrazine-2-carbonyl)-L-serinate] | – | ≥ 500 | ≥ 500 | > 250 | > 250 | > 250 | > 250 | > 250 | > 250 | 125 (≈ 39.4 µg/mL) | 7.81 | 7.81 | 250 | 24.8 | > 250 | 62.5 (≈ 198 µM) | ≥ 500 | > 250 | 742 | 25 | –
7 | COC(=O)[C@@H](NC(=O)c1cnccn1)[C@@H](C)OC(C)(C)C [PC-L-OtBu-Thr-Me, methyl O-(tert-butyl)-N-(pyrazine-2-carbonyl)-L-threoninate] | > 500 | ≥ 500 | ≥ 500 | > 500 | > 500 | > 500 | > 500 | > 500 | > 500 | > 500 | ≥ 500 | ≥ 500 | ≥ 500 | ≥ 1690 | > 500 | ≥ 500 | ≥ 500 | 62.5 (≈ 18.5 µg/mL) | > 500 | 1690 | –
8 | COC(=O)[C@@H](NC(=O)c1cnccn1)[C@@H](C)O [PC-L-Thr-Me, methyl (pyrazine-2-carbonyl)-L-threoninate] | > 500 | ≥ 500 | ≥ 500 | > 500 | > 500 | 500 (≈ 120 µg/mL) | > 500 | > 500 | > 500 | > 500 | ≥ 500 | ≥ 500 | ≥ 500 | ≥ 2090 | > 500 | ≥ 500 | ≥ 500 | > 500 | – | – | –
9 | CCOC(=O)[C@H](Cc1c[nH]c2ccccc12)NC(=O)c1cnccn1 [PC-L-Trp-Et, ethyl (pyrazine-2-carbonyl)-L-tryptophanate] | > 500 | 250 (≈ 739 µM) | 250 (≈ 739 µM) | > 500 | > 500 | > 500 | > 500 | > 500 | > 500 | > 500 | 125 | 125 | 125 | 369 | > 500 | 62.5 (≈ 185 µM) | 125 (≈ 369 µM) | > 500 | 147 | 125 | –
10 | CCOC(=O)[C@H](Cc1ccc(O)cc1)NC(=O)c1cnccn1 [PC-L-Tyr-Et, ethyl (pyrazine-2-carbonyl)-L-tyrosinate] | > 500 | ≥ 250 | ≥ 500 | > 500 | > 500 | > 500 | > 500 | > 500 | > 500 | > 500 | 7.81 | 7.81 | 500 | 24.8 | > 500 | ≥ 250 | ≥ 500 | > 500 | – | – | IC50 (HepG2 cell line; [23]): 177 µM; MIC [13, 24]: 25 µM
11 | COC(=O)[C@@H](NC(=O)c1cnccn1)C(C)C [PC-L-Val-Me, methyl (pyrazine-2-carbonyl)-L-valinate] | > 500 | ≥ 125 | 250 (≈ 1050 µM) | > 500 | > 500 | > 500 | > 500 | > 500 | > 500 | > 500 | ≥ 125 | ≥ 125 | ≥ 500 | ≥ 527 | > 500 | ≥ 125 | ≥ 500 | > 500 | – | – | –
